Data as given in patent US4684647A, “Anti-bacterial pyrido-benzothiazine derivative and pharmaceutical composition therefor” (priority 1984, dated 1987).
Values after ≈ are worked out from the molar mass of the structure shown.

Tests used:
[1] = pharmacokinetic test, absorption; type: in vivo
[2] = tested on: bacteria; assay: antibacterial activity in vitro, overall; type: cell-based; details: for anti-bacterial activity in vitro: Table 1; for activity with chlorine instead of fluorine in the X-position: comparison with (a), (c), (p)
Experimental: (§1) The antibacterial activity (minimum inhibiting concentration, MIC) of the compounds according to the invention has been determined in agar, by adding the compound under evaluation at concentrations of from 0.1 to 100 meg/ml by means of a "multipoint inoculator" (Denley Techn. Ltd., England); the medium used was Isosensitest agar (Oxoid); the bacterial inoculate was 10^4 colony forming unity (CFU) per inoculation point. The reading of the results was done after 24 hour-incubation in thermostat at 37° C.
(§2) The MIC was defined as the lowest concentration of chemotherapeutic agent still capable of totally inhibiting the growth of bacteria, as detected from a lack of colony development in the inoculation point.
(§3) The microorganisms used for evaluating the activity of the specific compounds have been: Escherichia coli, Klebsiella P., Enterobacter, Serratia, Citrobacter, Proteus (+), Salmonella, Pseudomonas, Staphylococcus. All the compounds according to the present invention are provided with antibacterial activity against one or more microorganism(s) among those above mentioned. Some of such compounds are absorbed after having been administered orally to the animals, and are particularly useful as disinfectants of the urinary tract in that they are excreted in a high percentage (50-70% over 24 hours after the administration of 50 mg/kg per os) as such, and in metabolic active form, through the urine.

[3] = tested on: Staphylococcus aureus; assay: MIC in agar, Staphylococcus aureus; type: cell-based; details: Isosensitest agar, 10^4 CFU, 24 h, 37° C.
Experimental: as §1, §2, §3

[4] = tested on: Citrobacter; assay: MIC in agar, Citrobacter; type: cell-based; details: Isosensitest agar, 10^4 CFU, 24 h, 37° C., read-out: MIC, G = Citrobacter
Experimental: as §1, §2, §3

[5] = tested on: Klebsiella pneumoniae; assay: MIC in agar, Klebsiella pneumoniae; type: cell-based; details: Isosensitest agar, 10^4 CFU, 24 h, 37° C., read-out: MIC, E = Klebsiella pneumoniae
Experimental: as §1, §2, §3
E = Klebsiella pneumoniae

[6] = tested on: Escherichia coli (981); assay: MIC in agar, Escherichia coli (981); type: cell-based; details: Isosensitest agar, 10^4 CFU, 24 h, 37° C.
Experimental: as §1, §2, §3
A = Escherichia coli (981)

[7] = tested on: Enterobacter; assay: MIC in agar, Enterobacter; type: cell-based; details: Isosensitest agar, 10^4 CFU, 24 h, 37° C., read-out: MIC, F = Enterobacter
Experimental: as §1, §2, §3

[8] = tested on: Pseudomonas aeruginosa; assay: MIC in agar, Pseudomonas aeruginosa; type: cell-based; details: Isosensitest agar, 10^4 CFU, 24 h, 37° C., read-out: MIC, B = Pseudomonas aeruginosa
Experimental: as §1, §2, §3
B = P udomonas aeruginosa

[9] = tested on: Proteus Morgani (indole +); assay: MIC in agar, Proteus Morgani (indole +); type: cell-based; details: Isosensitest agar, 10^4 CFU, 24 h, 37° C.; read-out: MIC, D = Proteus Morgani (indole +)
Experimental: as §1, §2, §3
D = Proteus Morgani (indole +)

[10] = in vivo; details: rat, po
Experimental: In Table 4 the percentage of urinary excretion of compound (h) is reported, as measured in the 24 hours successive to oral administration of the same to rats.
Each value is the average of three tested rats.
The tests have been performed in comparison with Ofloxacin, a well known antibacterial compound. The amount of excreted product has been determined with microbiological analysis, by using Klebsiella Pneumoniae as the testing microorganism.

Row | dose excreted at 24 h ([10]; 20 mg/kg) | dose excreted at 24 h ([10]; 50 mg/kg) | SMILES | absorption [1] | anti-bacterial activity in vitro [2] | MIC [3] | MIC [4] | MIC [5] | MIC [6] | MIC [7] | MIC [8] | MIC [9] | activity with chlorine instead of fluorine in the X-position [2]
1 | – | – | O=C(O)c1cn2c3c(c(Cl)c(F)cc3c1=O)SCC2 [(a), 9-fluoro-10-chloro-7-oxo-2,3-dihydro-7H-pyrido[1,2,3de][1,4]benzothiazine-6-carboxylic acid] | not at all absorbed | very good and comparable anti-bacterial activity | 0.39 µg/mL (≈ 1.3 µM) | 0.78 µg/mL (≈ 2.6 µM) | 0.78 µg/mL (≈ 2.6 µM) | 0.39 µg/mL (≈ 1.3 µM) | 0.39 µg/mL (≈ 1.3 µM) | > 25 µg/mL | 1.56 µg/mL (≈ 5.21 µM) | –
2 | – | – | O=C(O)c1cn2c3c(c(N4CCCC4)c(F)cc3c1=O)SCC2 [(c)] | – | very good and comparable anti-bacterial activity | < 0.39 µg/mL | 25 µg/mL (≈ 74.8 µM) | 1.56 µg/mL (≈ 4.67 µM) | 1.56 µg/mL (≈ 4.67 µM) | 1.56 µg/mL (≈ 4.67 µM) | 3.12 µg/mL (≈ 9.33 µM) | 3.12 µg/mL (≈ 9.33 µM) | –
3 | – | – | O=C(O)c1cn2c3c(c(N4CCCC4)c(F)cc3c1=O)[S+]([O-])CC2 (centres unmarked) [(e)] | – | – | 12.5 µg/mL (≈ 35.7 µM) | 50 µg/mL (≈ 143 µM) | 25 µg/mL (≈ 71.4 µM) | 12.5 µg/mL (≈ 35.7 µM) | 50 µg/mL (≈ 143 µM) | > 50 µg/mL | > 50 µg/mL | –
4 | – | – | O=C(O)c1cn2c3c(c(N4CCCC4)c(F)cc3c1=O)S(=O)(=O)CC2 [(f), 9-fluoro-10-(1-pyrrolidinyl)-7-oxo-2,3-dihydro-7H-pyrido[1,2,3 de][1,4]benzothiazine-1,1-dioxido-6-carboxylic acid] | – | – | 3.12 µg/mL (≈ 8.52 µM) | 25 µg/mL (≈ 68.2 µM) | 25 µg/mL (≈ 68.2 µM) | 3.12 µg/mL (≈ 8.52 µM) | 25 µg/mL (≈ 68.2 µM) | > 50 µg/mL | > 50 µg/mL | –
5 | – | – | O=C(O)c1cn2c3c(c(N4CCNCC4)c(F)cc3c1=O)SCC2 [(g)] | – | very good and comparable anti-bacterial activity | 0.78 µg/mL (≈ 2.23 µM) | 0.78 µg/mL (≈ 2.23 µM) | < 0.39 µg/mL | 0.39 µg/mL (≈ 1.12 µM) | < 0.39 µg/mL | 12.5 µg/mL (≈ 35.8 µM) | 1.56 µg/mL (≈ 4.46 µM) | –
6 | – | – | O=C(O)c1cn2c3c(c(N4CCN(CC(F)(F)F)CC4)c(F)cc3c1=O)SCC2 [(i)] | – | – | 0.39 µg/mL (≈ 0.904 µM) | 12.5 µg/mL (≈ 29 µM) | > 50 µg/mL | > 50 µg/mL | > 50 µg/mL | > 50 µg/mL | > 50 µg/mL | –
7 | – | – | O=C(O)c1cn2c3c(c(N4CCN(C(=O)C(F)(F)F)CC4)c(F)cc3c1=O)SCC2 [(l)] | – | very good and comparable anti-bacterial activity | 1.56 µg/mL (≈ 3.5 µM) | 0.39 µg/mL (≈ 0.876 µM) | < 0.39 µg/mL | < 0.39 µg/mL | < 0.39 µg/mL | 12.5 µg/mL (≈ 28.1 µM) | 1.56 µg/mL (≈ 3.5 µM) | –
8 | – | – | CC1CN(c2c(F)cc3c(=O)c(C(=O)O)cn4c3c2SCC4)CC(C)N1 (centres unmarked) [(m)] | – | – | 3.12 µg/mL (≈ 8.27 µM) | 12.5 µg/mL (≈ 33.1 µM) | 6.25 µg/mL (≈ 16.6 µM) | 6.25 µg/mL (≈ 16.6 µM) | 3.12 µg/mL (≈ 8.27 µM) | 100 µg/mL (≈ 265 µM) | 25 µg/mL (≈ 66.2 µM) | –
9 | – | – | CC1CSc2c(Cl)c(F)cc3c(=O)c(C(=O)O)cn1c23 (centres unmarked) [(n), 9-fluoro-10-chloro-3-methyl-7-oxo-2,3-dihydro-7H-pyrido[1,2,3 de][1,4]benzothiazine-6-carboxylic acid] | – | very good and comparable anti-bacterial activity | 0.39 µg/mL (≈ 1.24 µM) | – | 0.78 µg/mL (≈ 2.49 µM) | 0.39 µg/mL (≈ 1.24 µM) | 0.39 µg/mL (≈ 1.24 µM) | 25 µg/mL (≈ 79.7 µM) | – | –
10 | – | – | CC1CSc2c(F)c(F)cc3c(=O)c(C(=O)O)cn1c23 (centres unmarked) [(o), 9,10-difluoro-3-methyl-7-oxo-2,3-dihydro-7H-pyrido[1,2,3 de][1,4]benzothiazine-6-carboxylic acid] | – | very good and comparable anti-bacterial activity | – | – | – | – | – | – | – | –
11 | – | – | CC1CSc2c(N3CCN(C)CC3)c(F)cc3c(=O)c(C(=O)O)cn1c23 (centres unmarked) [(p)] | – | very good and comparable anti-bacterial activity | 0.78 µg/mL (≈ 2.07 µM) | – | < 0.39 µg/mL | 0.78 µg/mL (≈ 2.07 µM) | < 0.39 µg/mL | 50 µg/mL (≈ 132 µM) | – | –
12 | – | – | CC1CSc2c(N3CCNCC3)c(F)cc3c(=O)c(C(=O)O)cn1c23 (centres unmarked) [(r)] | – | very good and comparable anti-bacterial activity | 0.78 µg/mL (≈ 2.15 µM) | – | < 0.39 µg/mL | 0.78 µg/mL (≈ 2.15 µM) | < 0.39 µg/mL | 12.5 µg/mL (≈ 34.4 µM) | – | –
13 | – | – | O=C(O)c1cn2c3c(c(Cl)c(Cl)cc3c1=O)SCC2 [Comparison (b), reference compound] | – | – | 0.78 µg/mL (≈ 2.47 µM) | > 50 µg/mL | 12.5 µg/mL (≈ 39.5 µM) | > 50 µg/mL | > 50 µg/mL | > 50 µg/mL | 6.25 µg/mL (≈ 19.8 µM) | strongly reduced
14 | – | – | O=C(O)c1cn2c3c(c(N4CCCC4)c(Cl)cc3c1=O)SCC2 [Comparison (d), reference compound] | – | – | 0.78 µg/mL (≈ 2.22 µM) | > 50 µg/mL | 12.5 µg/mL (≈ 35.6 µM) | > 50 µg/mL | > 50 µg/mL | > 50 µg/mL | 3.12 µg/mL (≈ 8.89 µM) | strongly reduced
15 | – | – | CC1CSc2c(N3CCN(C)CC3)c(Cl)cc3c(=O)c(C(=O)O)cn1c23 (centres unmarked) [Comparison (q), reference compound] | – | – | 3.12 µg/mL (≈ 7.92 µM) | – | 12.5 µg/mL (≈ 31.7 µM) | > 50 µg/mL | > 50 µg/mL | > 12.5 µg/mL | – | strongly reduced
16 | 61 ± 4.58% | 54.5 ± 5.29% | CC1COc2c(N3CCN(C)CC3)c(F)cc3c(=O)c(C(=O)O)cn1c23 (centres unmarked) [Ofloxacin, reference compound] | – | – | – | – | – | – | – | – | – | –
